Measurements from patent US10597391B2, “Urea-containing isoxazole derivatives as FXR agonists and methods of use thereof” (Enanta Pharmaceuticals, Inc., priority 2016, dated 2020).
Read-outs that look alike come from different tables or passages of the source.

Target: T1, human FXR (NR1H4) (Homo sapiens, UniProt Q96RI1)
T1 sequence (Q96RI1 1-486): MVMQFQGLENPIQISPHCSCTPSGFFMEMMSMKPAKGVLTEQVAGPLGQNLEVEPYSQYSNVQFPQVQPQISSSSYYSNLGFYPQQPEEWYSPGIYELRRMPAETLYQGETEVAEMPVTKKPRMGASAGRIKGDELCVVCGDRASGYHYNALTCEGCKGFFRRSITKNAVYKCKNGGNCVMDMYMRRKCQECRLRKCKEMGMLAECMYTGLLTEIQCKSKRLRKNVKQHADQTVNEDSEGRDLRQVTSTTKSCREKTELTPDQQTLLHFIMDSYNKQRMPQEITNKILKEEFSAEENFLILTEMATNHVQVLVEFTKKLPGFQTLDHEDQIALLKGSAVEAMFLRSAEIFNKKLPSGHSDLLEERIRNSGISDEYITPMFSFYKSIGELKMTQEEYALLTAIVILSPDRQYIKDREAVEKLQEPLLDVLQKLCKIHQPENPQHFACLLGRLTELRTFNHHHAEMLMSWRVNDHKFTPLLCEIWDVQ
Experiment: Human FXR (NR1H4) Assay: Gal4 promoter driven luciferase reporter transactivation in CHO cells (Indigo Bioscience kit IB00601)
Type: cell-based
Settings: for Emax: CHO, read-out: Efficacy (%); for EC50: potency range, Human FXR (NR1H4) reporter assay in CHO cells, read-out: EC50
Procedure, shortened: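 CHO reporter cells expressing human NR1H4 with luciferase driven by an FXR-responsive promoter (Gal4 system), run per manufacturer's kit. Compounds applied to plated cells, then incubated a further 22 hours at 37° C. Luciferase luminescence read after detection reagent as a surrogate of FXR activation, giving potency and efficacy.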

[1] = efficacy normalized to CDCA set as 100%

SMILES	Emax [1] [%]	EC50 [nM]	Emax [%]
O=C(O)c1ccc(NC(=O)N2C3CCC2CC(OCc2c(-c4c(Cl)cccc4Cl)noc2C2CC2)C3)c(F)c1 (stereo not shown) [Example 692]	156	< 10	–
O=C(O)c1ccc(NC(=O)N2C3CCC2CC(OCc2c(-c4ccccc4C4CC4)noc2C2CC2)C3)c(F)c1 (stereo not shown) [Example 809]	43	10 to 100	–
O=C(O)c1ccc(NC(=O)N2C3CCC2CC(OCc2c(C4CCC5(CC4)CC5)noc2C2CC2)C3)c(F)c1 (stereo not shown) [Example 285]	–	10 to 100	–
O=C(NCc1cccc(-c2ccccc2)c1)N1C2CCC1CC(OCc1c(-c3c(Cl)cccc3Cl)noc1C1CC1)C2 (stereo not shown) [Example 735]	136	100 to 1000	–
O=C(O)c1ccc2c(c1)N(C(=O)N1C3CCC1CC(OCc1c(-c4ccccc4OC(F)(F)F)noc1C1CC1)C3)CCC2 (stereo not shown) [Example 596]	–	> 1000	48
CN(C)S(=O)(=O)c1cccc(NC(=O)N2C3CCC2CC(OCc2c(-c4c(Cl)cccc4Cl)noc2C2CC2)C3)c1 (stereo not shown) [Example 25]	–	< 10	–
O=C(NCc1ccccc1)N1C2CCC1CC(OCc1c(-c3c(Cl)cccc3Cl)noc1C1CC1)C2 (stereo not shown) [Example 730]	252	< 10	–
CN1CCC(c2cccc(NC(=O)N3C4CCC3CC(OCc3c(-c5c(Cl)cccc5Cl)noc3C3CC3)C4)c2)CC1 (stereo not shown) [Example 5]	–	10 to 100	–
O=C(Nc1ccccc1F)N1C2CCC1CC(OCc1c(-c3c(Cl)cccc3Cl)noc1C1CC1)C2 (stereo not shown) [Example 7]	–	10 to 100	–
COC(=O)c1cccc(OC)c1NC(=O)N1C2CCC1CC(OCc1c(-c3ccccc3OC(F)(F)F)noc1C1CC1)C2 (stereo not shown) [Example 751]	26	100 to 1000	–
O=C(O)c1cccc(NC(=O)N2C3CCC2CC(NCc2c(-c4c(Cl)cccc4Cl)noc2C2CC2)C3)c1 (stereo not shown) [Example 828]	59	10 to 100	–
O=C(NS(=O)(=O)c1ccccc1)c1cccc(NC(=O)N2C3CCC2CC(OCc2c(-c4ccccc4OC(F)(F)F)noc2C2CC2)C3)c1 (stereo not shown) [Example 759]	205	> 1000	–
COc1ccc(CNC(=O)N2C3CCC2CC(OCc2c(-c4c(Cl)cccc4Cl)noc2C2CC2)C3)cc1 (stereo not shown) [Example 731]	229	< 10	–
COC(=O)c1ccc(NC(=O)N2C3CCC2CC(OCc2c(-c4c(Cl)cccc4Cl)noc2C2CC2)C3)cn1 (stereo not shown) [Example 212]	–	< 10	–
O=C(O)c1cc(F)c(NC(=O)N2C3CCC2CC(OCc2c(-c4c(Cl)cccc4Cl)noc2C2CC2)C3)cc1-c1ccccc1 (stereo not shown) [Example 797]	129	< 10	–
Cn1cc(-c2cccc(NC(=O)N3C4CCC3CC(OCc3c(-c5c(Cl)cccc5Cl)noc3C3CC3)C4)c2)cn1 (stereo not shown) [Example 13]	–	< 10	–
O=C(O)c1ccc(NC(=O)N2C3CCC2CC(OCc2c(-c4c(Cl)cccc4Cl)noc2C2CC2)C3)cn1 (stereo not shown) [Example 213]	–	100 to 1000	–
O=C(NS(=O)(=O)c1ccccc1)c1ccc(NC(=O)N2C3CCC2CC(OCc2c(-c4ccccc4OC(F)(F)F)noc2C2CC2)C3)cc1 (stereo not shown) [Example 756]	205	100 to 1000	–
CN(C)S(=O)(=O)NC(=O)c1cccc(NC(=O)N2C3CCC2CC(OCc2c(-c4ccccc4OC(F)(F)F)noc2C2CC2)C3)c1 (stereo not shown) [Example 265]	–	100 to 1000	–
CCOC(=O)c1ccc(NC(=O)N2C3CCC2CC(OCc2c(-c4ccccc4OC(F)(F)F)noc2C2CC2)C3)cc1 (stereo not shown) [Example 228]	–	100 to 1000	–
COC(=O)CNC(=O)c1ccc(NC(=O)N2C3CCC2CC(OCc2c(-c4c(Cl)cccc4Cl)noc2C2CC2)C3)c(F)c1 (stereo not shown) [Example 781]	100	10 to 100	–
O=C(Nc1ccc(F)cc1)N1C2CCC1CC(OCc1c(-c3c(Cl)cccc3Cl)noc1C1CC1)C2 (stereo not shown) [Example 698]	182	10 to 100	–

SMILES	Emax [1] [%]	EC50 [nM]	Emax [%]
COC(=O)c1ccc2c(c1)N(C(=O)N1C3CCC1CC(OCc1c(-c4ccccc4OC(F)(F)F)noc1C1CC1)C3)CC2 (stereo not shown) [Example 589]	–	> 1000	76
O=C(O)c1ccc(NC(=O)N2C3CCC2CC(OCc2c(-c4c(Cl)cccc4Cl)noc2C2CC2)C3)c(C2CC2)c1 (stereo not shown) [Example 801]	70	10 to 100	–
COc1cccc(C(=O)O)c1NC(=O)N1C2CCC1CC(OCc1c(-c3ccccc3OC(F)(F)F)noc1C1CC1)C2 (stereo not shown) [Example 762]	6	100 to 1000	–
CCOC(=O)c1cccc(NC(=O)N2C3CCC2CC(OCc2c(-c4ccccc4OC(F)(F)F)noc2C2CC2)C3)n1 (stereo not shown) [Example 766]	192	> 1000	–
O=C(O)c1ccccc1NC(=O)N1C2CCC1CC(OCc1c(-c3ccccc3OC(F)(F)F)noc1C1CC1)C2 (stereo not shown) [Example 744]	165	> 1000	–
CCOc1cc(C(=O)O)ccc1NC(=O)N1C2CCC1CC(OCc1c(-c3c(F)cccc3F)noc1C1CC1)C2 (stereo not shown) [Example 810]	64	10 to 100	–
O=C(Nc1cccnc1)N1C2CCC1CC(OCc1c(-c3c(Cl)cccc3Cl)noc1C1CC1)C2 (stereo not shown) [Example 15]	–	< 10	–
COC(=O)c1ccc(NC(=O)N2C3CCC2CC(OCc2c(-c4c(Cl)cccc4Cl)noc2C2CC2)C3)nc1 (stereo not shown) [Example 786]	44	10 to 100	–
CCOc1cc(C(=O)O)ccc1NC(=O)N1C2CCC1CC(NCc1c(-c3c(Cl)cccc3Cl)noc1C1CC1)C2 (stereo not shown) [Example 830]	82	< 10	–
O=C(O)c1ccc(NC(=O)N2C3CCC2CC(OCc2c(-c4c(Cl)cccc4Cl)noc2C2CC2)C3)c(C(F)(F)F)c1 (stereo not shown) [Example 710]	170	10 to 100	–
O=C(Nc1ccc(C(F)(F)F)cc1)N1C2CCC1CC(OCc1c(-c3c(Cl)cccc3Cl)noc1C1CC1)C2 (stereo not shown) [Example 8]	–	100 to 1000	–
COC(=O)c1ccc(OC)c(NC(=O)N2C3CCC2CC(OCc2c(-c4ccccc4OC(F)(F)F)noc2C2CC2)C3)c1 (stereo not shown) [Example 749]	104	10 to 100	–
CCOC(=O)c1ccc(NC(=O)N2C3CCC2CC(OCc2c(-c4c(Cl)cccc4Cl)noc2C2CC2)C3)cc1 (stereo not shown) [Example 182]	–	10 to 100	–
N#Cc1cccc(NC(=O)N2C3CCC2CC(OCc2c(-c4c(Cl)cccc4Cl)noc2C2CC2)C3)c1 (stereo not shown) [Example 3]	–	< 10	–
COC(=O)c1ccc(NC(=O)N2C3CCC2CC(OCc2c(-c4c(Cl)cccc4Cl)noc2C2CC2)C3)c(C#N)c1 (stereo not shown) [Example 802]	28	100 to 1000	–
O=C(Nc1cccc(-c2cnn(C3CCOCC3)c2)c1)N1C2CCC1CC(OCc1c(-c3c(Cl)cccc3Cl)noc1C1CC1)C2 (stereo not shown) [Example 708]	209	< 10	–
O=C(O)c1ccc(NC(=O)N2C3CCC2CC(OCc2c(-c4c(Cl)cccc4Cl)noc2C2CC2)C3)c(F)c1-c1ccccc1 (stereo not shown) [Example 798]	124	10 to 100	–
COC(=O)c1ccc(NC(=O)N2C3CCC2CC(OCc2c(-c4c(Cl)cccc4Cl)noc2C2CC2)C3)cc1-c1cnn(C)c1 (stereo not shown) [Example 774]	102	< 10	–
O=C(O)c1ccc(NC(=O)N2C3CCC2CC(OCc2c(-c4c(Cl)cccc4Cl)noc2C2CC2)C3)cc1F (stereo not shown) [Example 197]	–	10 to 100	–
O=C(O)c1c(F)cc(NC(=O)N2C3CCC2CC(OCc2c(-c4c(Cl)cccc4Cl)noc2C2CC2)C3)cc1F (stereo not shown) [Example 199]	–	100 to 1000	–
CCOC(=O)c1cccc(NC(=O)N2C3CCC2CC(OCc2c(-c4c(Cl)cccc4Cl)noc2C2CC2)C3)c1 (stereo not shown) [Example 181]	–	< 10	–
